Experimental data taken from patent EP0302626A2, “Insecticidal compounds” (IMPERIAL CHEMICAL INDUSTRIES PLC, priority 1987, dated 1989).
“And” between values parts separate entries of the source, which are not always exact repeats. Equal entries are not always repeated. Where two headings read alike, the source gives them in different places. Marks after values point to notes of the source that are not given here.

Legend:
Format in all cases: in vivo
[1] = system: Diabrotica balteata (rootworm larvae); experiment: insecticidal mortality test, residual, filter paper/maize seed; conditions: read-out: grading of mortality, DB
Procedure: (§1) The activity of the Product was determined using a variety of insect pests. The Product was used in the form of liquid preparations containing 500, 250 or 100 parts per million (ppm) by weight of the Product. The preparations were made by dissolving the Product in acetone and diluting the solutions with water containing 0.01% by weight of a wetting agent sold under the trade name "LlSSAPOL" NX until the liquid preparations contained the required concentration of the Product. "Lissapol" is a Registered Trade Mark.
(§2) The test procedure adopted with regard to each pest was basically the same and comprised supporting a number of the pests on a medium which was usually a host plant or a foodstuff on which the pests feed, and treating either or both the pests and the medium with the preparations. The mortality of the pests was then assessed at periods usually varying from one to three days after the treatment.
(§3) The results of the tests are given in Table III for each of the Products, at the rate in parts per million given in the second column as a grading of mortality designated as A, B or C wherein A indicates 80-100% mortality, B indicates 50-79% mortality and C indicates less than 50% mortality.
(§4) In Table 111 the pest organism used is designated by a letter code and the pests species, the support medium or food, and the type and duration of test is given in Table II.

[2] = system: Blattella germanica (adult males); experiment: Blattella germanica knockdown test; conditions: for mortality at 250 ppm / pest or weed control at 250 ppm: Blattella germanica; for mortality at 250 ppm: 48 h; for mortality at 250 ppm / % MORTALITY 48 hrs: insects held at 25°C and 65% relative humidity for 48 hours; for mortality at 250 ppm / pest or weed control at 250 ppm / % KNOCKDOWN OBSERVED 15 min / % KNOCKDOWN OBSERVED 20 min / % MORTALITY 48 hrs: tests 1 and 2 are repeats; for pest or weed control at 250 ppm: topical, Tetramethrin: mean of 27 observations; for pest or weed control at 250 ppm / % KNOCKDOWN OBSERVED 15 min / % KNOCKDOWN OBSERVED 20 min: 250 ppm in kerosene, 1 cm3 sprayed onto 10 adult males; for KT₅₀: time taken to knockdown 50% of test insects; for KT₅₀ / KT₉₀: Tetramethrin: mean of 3 assessments; for KT₉₀: time taken to knockdown 90% of test insects; for % MORTALITY 48 hrs: 2880 min
Procedure: The test compound was dissolved in acetone (2 cm³) and the solution diluted to a concentration of 250 ppm with kerosene. 1 cm³ Of this preparation was sprayed onto 10 Blattella germanica (adult males) held in a netted plastic pot in a Burkhard potter Tower. Assessment of knockdown was performed at intervals of 5 minutes up to a total of 20 minutes. On removal from the Burkhard Potter Tower, the insects were held at 25°C and 65% relative humidity for 48 hours, and an assessment of mortality performed. Each test was repeated.
In some tests, additional knockdown assessment was performed at intervals of 1, 2, 3 and 4 minutes, and KT₅₀ and KT₉₀ values determined (the time taken, in minutes, to knockdown 50% and 90% respectively of test insects).

[3] = system: Tetranychus urticae (spider mites - adult); experiment: insecticidal mortality test, contact, French bean leaf; conditions: Tetranychus urticae, 72 h; for mortality at 100 ppm: read-out: grading of mortality, Tua, 100 ppm, 3 days
Procedure: as §1, §2, §3, §4

[4] = system: Musca domestica (adult females); experiment: Musca domestica knockdown test; conditions: 1 cm3 of 30 ppm solution in acetone, Kearns and March chamber, 20 adult females, observed over 10 minutes; average of 2 replicates (* single replicate, ** average of 7 tests)
Procedure: 1 cm³ Of a 30 ppm solution of the test chemical in acetone was sprayed into a Kearns and March chamber containing 20 Musca domestica (adult females). Knockdown was observed over a period of 10 minutes and KT₅₀ and KT₉₀ values (the time taken for 50% and 90% of the insects to be knocked down) were calculated from the observations. The results given in Table V represent average KT values of 2 replicates except where otherwise stated.

Myzus persicae (aphids) = experiment: insecticidal mortality test, contact, Chinese Cabbage leaf; conditions: 72 h, read-out: grading of mortality, MP
Procedure: as §1, §2, §3, §4

[5] = system: Heliothis virescens (tobacco budworm - larvae); experiment: insecticidal mortality test, residual, cotton leaf; conditions: residual, cotton leaf, read-out: grading of mortality, HV
Procedure: as §1, §2, §3, §4

[6] = system: Spodoptera exigua (lesser army worm - larvae); experiment: insecticidal mortality test, residual, cotton leaf; conditions: read-out: grading of mortality, SP
Procedure: as §1, §2, §3, §4

[7] = system: Musca domestica (houseflies - adults); experiment: insecticidal mortality test, contact, cotton wool/sugar; conditions: read-out: grading of mortality, MD
Procedure: as §1, §2, §3, §4

[8] = system: Blattella germanica (cockroach nymphs); experiment: insecticidal mortality test, residual, plastic pot; conditions: 72 h, read-out: grading of mortality, BG
Procedure: as §1, §2, §3, §4

[9] = system: Nephotettix cincticeps (green leaf hopper - nymphs); experiment: insecticidal mortality test, contact, rice plant; conditions: 100 ppm, contact, rice plant, read-out: grading of mortality, NC
Procedure: as §1, §2, §3, §4

[10] = 250 ppm spray, read-out: % MORTALITY 48 hrs
[11] = 5 min, 5 min, read-out: % KNOCKDOWN OBSERVED 5 min
[12] = 10 min, 10 min, read-out: % KNOCKDOWN OBSERVED 10 min
[13] = 48 h, test duration of 2 days (footnote +)

| Structure (SMILES) | mortality at 250 ppm [2, 10] [%] | pest or weed control at 250 ppm [2, 11] [%] | mortality at 100 ppm [3] [%] | KT₅₀ [4] | KT₉₀ [4] | mortality at 100 ppm (Myzus persicae (aphids)) [%] | mortality at 100 ppm [8] [%] | mortality at 100 ppm ([1]; 48 h) [%] | KT₅₀ ([2]; 250 ppm spray) | KT₉₀ ([2]; 250 ppm spray) | pest or weed control at 250 ppm [2, 12] [%] | mortality at 100 ppm [5, 13] [%] | mortality at 100 ppm ([6]; 48 h) [%] | mortality at 100 ppm ([7]; 72 h) [%] | mortality at 100 ppm [9, 13] [%] | % KNOCKDOWN OBSERVED 15 min [2] [%] | % KNOCKDOWN OBSERVED 20 min [2] [%] | % MORTALITY 48 hrs ([2]; 250 ppm spray) | also measured |
| --- | --- | --- | --- | --- | --- | --- | --- | --- | --- | --- | --- | --- | --- | --- | --- | --- | --- | --- | --- |
| CC1(C)C(C=C(Cl)C(F)(F)F)C1C(=O)OCc1c(F)c(F)c(CCl)c(F)c1F (racemic) [Product III, 4-(chloromethyl)-2,3,5,6-tetrafluorobenzyl (1RS,cis)-3-(Z-2-chloro-3,3,3-trifluoroprop-1-en-1-yl)-2,2-dimethylcyclopropanecarboxylate] | 100 | 100 | 80 to 100 | 10 min | 10 min | 80 to 100 | 80 to 100 |  |  |  |  |  |  |  |  |  |  |  | mortality at 100 ppm ([1]; 72 h): 80 to 100%; mortality at 100 ppm ([5]; 72 h, 3 days): 80 to 100%; mortality at 100 ppm ([6]; 72 h): 80 to 100%; mortality at 100 ppm ([7]; 24 h): < 50%; mortality at 100 ppm ([9]; 72 h, 3 days): 80 to 100% |
| CC(C)=NOCc1c(F)c(F)c(COC(=O)C2C(C=C(Cl)C(F)(F)F)C2(C)C)c(F)c1F (racemic) [Product XXII, 4-[(prop-2-ylideneamino)oxymethyl]-2,3,5,6-tetrafluorobenzyl (1RS, cis)-3-(Z-2-chloro-3,3,3-trifluoroprop-1-en-1-yl-2,2-dimethylcyclopropanecarboxylate] | 100 |  | 80 to 100 |  |  | 80 to 100 | < 50 | 80 to 100 | 3.6 min and 2.5 min | 8.3 min and 4.5 min | 100 | 80 to 100 | 80 to 100 | 80 to 100 | 80 to 100 |  |  |  |  |
| CC(C)=NOCc1c(F)c(F)c(COC(=O)[C@@H]2[C@@H](/C=C(\Cl)C(F)(F)F)C2(C)C)c(F)c1F (racemic) [Product XXIII, 4-[(prop-2-ylidenamino)oxymethyl]-2,3,5,6-tetrafluorobenzyl (1RS, trans)-3-(Z-2-chloro-3,3,3-trifluoroprop-1-en-1-yl)-2,2-dimethylcyclopropanecarboxylate] | 100 |  | 80 to 100 |  |  | 80 to 100 | < 50 | 80 to 100 |  | 9.3 min |  | < 50 | 80 to 100 | < 50 | 80 to 100 | 10 | 10 |  |  |
| C#CCN(C)Cc1c(F)c(F)c(COC(=O)[C@@H]2[C@H](/C=C(\Cl)C(F)(F)F)C2(C)C)c(F)c1F (racemic) [Product XXIV, 4-[(N-(prop-2-yn-1-yl)-N-methyl)aminomethyl]-2,3,5-6-tetrafluorobenzyl (1RS, cis)-3-(Z-2-chloro-3,3,3-trifluoroprop-1-en-1-yl)-2,2-dimethylcyclopropanecarboxylate] |  | 60 | 50 to 79 |  |  | 80 to 100 | 50 to 79 | 80 to 100 | 4.2 min and 5.0 min | 8.8 min and 9.0 min | 100 | 80 to 100 | 80 to 100 | 80 to 100 | 80 to 100 |  |  | 100% and 70% |  |
| C#CCSCc1c(F)c(F)c(COC(=O)[C@@H]2[C@H](/C=C(\Cl)C(F)(F)F)C2(C)C)c(F)c1F (racemic) [Product XXV, 4-[(prop-2-yn-1-yl)thiomethyl]-2,3,5,6-tetra fluorobenzyl (1RS, cis)-3-(Z-2-chloro-3,3,3-trifluoroprop-1-en-1-yl)-2,2-dimethylcyclopropanecarboxylate] |  |  | 80 to 100 |  |  | 80 to 100 | 80 to 100 | 80 to 100 | 2.5 min and 3.6 min | 4.5 min and 8.3 min | 100 | 80 to 100 | 80 to 100 | 80 to 100 | 80 to 100 |  |  |  |  |
| CC(=O)SCc1c(F)c(F)c(COC(=O)[C@@H]2[C@H](/C=C(\Cl)C(F)(F)F)C2(C)C)c(F)c1F (racemic) [Product XXVI, 4-(acetylthiomethyl)-2,3,5,6-tetrafluorobenzyl (1RS, cis)-3-(Z-2-chloro-3,3,3-trifluoroprop-1-en-1-yl)-2,2-dimethylcyclopropanecarboxylate] | 100 |  | 80 to 100 |  |  | 80 to 100 | 80 to 100 | 80 to 100 |  |  |  | 80 to 100 | 80 to 100 | 80 to 100 | 80 to 100 | 60 | 100 |  |  |
| CC(=O)SCc1c(F)c(F)c(COC(=O)[C@@H]2[C@@H](/C=C(\Cl)C(F)(F)F)C2(C)C)c(F)c1F (racemic) [Product XXVII, 4-(acetylthiomethyl)-2,3,5,6-tetrafluorobenzyl (1RS, trans)-3-(Z-2-chloro-3,3,3-trifluoroprop-1-en-1-yl)-2,2-dimethylcyclopropanecarboxylate] | 100 |  | 80 to 100 |  |  | 80 to 100 | < 50 | 80 to 100 |  |  |  | 80 to 100 | 80 to 100 | 80 to 100 | 80 to 100 | 40 | 40 | 80% |  |
| CC=NNc1c(F)c(F)c(COC(=O)C2C(C=C(Cl)C(F)(F)F)C2(C)C)c(F)c1F (stereo not drawn) [Product XIV, E/Z-4-(ethylidenehydrazino)-2,3,5,6-tetrafluorobenzyl (1RS, cis)-3-(Z-2-chloro-3,3,3-trifluoroprop-1-en-1-yl)-2,2-dimethylcyclopropanecarboxylate] |  |  |  | 6.6 min | 9.4 min |  |  |  |  |  |  |  |  |  |  | 100 |  | 50% and 90% | mortality at 500 ppm ([1]; 72 h): 80 to 100%; mortality at 500 ppm ([3]; read-out: grading of mortality, Tua, 500 ppm, 3 days): < 50%; mortality at 500 ppm (Myzus persicae (aphids)): 80 to 100%; mortality at 500 ppm ([5]; 72 h, 500 ppm, 3 days): 80 to 100%; mortality at 500 ppm ([7]; 24 h): 80 to 100%; mortality at 500 ppm [8]: 80 to 100% |
| CC(C)=CC1C(C(=O)OCN2C(=O)C3=C(CCCC3)C2=O)C1(C)C (stereo not shown) [Tetramethrin, reference compound] |  | 80 |  | 4.0** mins | 7.5** mins |  |  |  | 1.7** mins | 3.2** mins | 100 |  |  |  |  |  |  |  | mortality at 250 ppm ([2]; read-out: % MORTALITY 48 hrs, 250 ppm spray): 50% |
